The subject of data set [1] is larvae of the mustard beetle (Phaedon cochleariae). Put plainly: Phaedon test (spray treatment). Type of data set: in vivo. As to conditions: 500 g/ha, spray treatment of Chinese cabbage disks. The method, then: (§1) To produce a suitable preparation of active compound, 1 part by weight of active compound is mixed with the stated amounts of solvents and emulsifier, and the concentrate is diluted with emulsifier-containing water to the desired concentration. Disks of Chinese cabbage (Brassica pekinensis) are sprayed with a preparation of active compound of the desired concentration and, after drying, populated with larvae of the mustard beetle (Phaedon cochleariae). After the desired period of time, the effect in % is determined. 100% means that all beetle larvae have been killed; 0% means that none of the beetle larvae have been killed.

The test system of data set [2] is caterpillars of the armyworm (Spodoptera frugiperda). The data set is described as follows: Spodoptera frugiperda test (spray treatment). Type of data set: in vivo. As to conditions: 500 g/ha, spray treatment of corn leaf disks. The method, then: as §1, with “corn leaves (Zea mays)” for “Chinese cabbage (Brassica pekinensis)”, “caterpillars” for “larvae”, “armyworm (Spodoptera frugiperda).” for “mustard beetle (Phaedon cochleariae).”, “caterpillars” for “beetle larvae”

Data set [3] can be described thus: log P determination by HPLC on reverse-phase column (EEC directive 79/831 Annex V.A8). Type of data set: physicochemical. As to conditions: reverse-phase C18 HPLC column, acidic range (pH 2.3), 0.1% aqueous phosphoric acid/acetonitrile, 43° C. The method, then:
The log P values given in the table were determined in accordance with EEC directive 79/831 Annex V.A8 by HPLC (High Performance Liquid Chromatography) on a reverse-phase column (C 18). Temperature: 43° C. (a) Mobile phases for the determination in the acidic range (pH 2.3): 0.1% aqueous phosphoric acid, acetonitrile; linear gradient from 10% acetonitrile to 90% acetonitrile—the corresponding measurement results in table 1 are marked a). Calibration was carried out using unbranched alkan-2-ones (having 3 to 16 carbon atoms) with known log P values (determination of the log P values by the retention times using linear inter-polation between two successive alkanones).

The term chromatographic logP denotes a lipophilicity value derived from retention on a column. A low value points to lower lipophilicity.

With `O=C(NC(c1ccccc1)c1ccccn1)c1cnncc1C(F)(F)F` (stereo not shown) [Ia-59], the “Kill rate in % after 7 d” value in data set [1] and in data set [2] was 100% throughout.
In turn, `COC(=O)c1cnncc1C(F)(F)F` [methyl 5-trifluoromethylpyridazine-4-carboxylate] showed a chromatographic logP in data set [3] of 1.68.
On the same count and under the same terms, then `N#CCNC(=O)c1cnncc1C(F)(F)F` [Example 1, N-cyanomethyl-5-trifluoromethylpyridazine-4-carboxamide], with 0.6.
